Consider 21 compounds from patent US20210139484A1, “DIHYDROISOQUINOLINE-2(1H)-CARBOXAMIDE AND RELATED COMPOUNDS AND THEIR USE IN TREATING MEDICAL CONDITIONS” (GOSSAMER BIO SERVICES, INC., priority 2018, published 2021).

One assay has as its target T1, human HPK1 protein (Homo sapiens, UniProt Q92918).
T1 construct: recombinant human HPK1 protein (a.a. 1-346) was expressed in Sf9 insect cells; GST (N); purchased Signalchem M23-11G; host or cells: Sf9 insect cells (baculovirus)
T1 sequence (Q92918 1-346): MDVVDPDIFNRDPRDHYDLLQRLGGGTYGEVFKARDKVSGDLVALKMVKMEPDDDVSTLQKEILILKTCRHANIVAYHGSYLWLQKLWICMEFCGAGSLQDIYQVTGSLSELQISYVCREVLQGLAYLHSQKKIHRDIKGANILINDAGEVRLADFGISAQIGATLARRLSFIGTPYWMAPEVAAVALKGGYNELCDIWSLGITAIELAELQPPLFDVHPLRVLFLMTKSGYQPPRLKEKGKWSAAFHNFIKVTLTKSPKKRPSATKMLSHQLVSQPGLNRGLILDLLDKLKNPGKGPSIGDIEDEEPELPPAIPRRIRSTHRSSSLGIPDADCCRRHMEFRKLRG
Briefly: Human HPK1 protein TR-FRET assay. It counts as biochemical. To be noted: 1 mM ATP, Table 19. The procedure:
Exemplary compounds from the above Examples were tested for ability to inhibit HPK1 using a human HPK1 protein TR-FRET Assay. Assay procedures and results are described below.
N-terminal GST-tagged recombinant human HPK1 protein (a.a. 1-346) was expressed in Sf9 insect cells using a baculovirus expression system (Signalchem Catalog #M23-11G). The enzyme was diluted in assay buffer (50 mM Tris pH 7.5, 1 mM MgCl2, 0.01% NP-40 and 2 mM DTT) to obtain a 4× working solution at a concentration of 40 nM HPK1 enzyme.
A 5 μM stock of ULight™ CREBtide peptide RRPSYRK (Perkin Elmer Product No. TRF0107-M) derived from human cAMP Response Element Binding (CREB) Protein was prepared in storage buffer containing 50 mM Tris-HCl (pH 7.4), 0.9% NaCl, 0.1% BSA, and 0.05% sodium azide. The CREBtide substrate was diluted in assay buffer (50 mM Tris pH 7.5, 1 mM MgCl2, 0.01% NP-40, 2 mM DTT) with 2 mM ATP to a final concentration of 200 nM CREBtide peptide to obtain a 2× working solution of substrate. HPK1 enzyme and CREBtide substrate solutions were mixed with compounds diluted in DMSO to obtain a final concentration of enzyme, substrate, and ATP of 10 nM, 100 nM, and 1 mM, respectively, in 1% DMSO. The final assay mixture was incubated at room temperature for 60 minutes.
A solution of Europium-labeled anti-phospho-CREB (Ser133) antibody (Perkin Elmer Product No. TRF0200-M), EDTA and LANCE™ Detection Buffer (Perkin Elmer Product No. CR97-100) were added to each well to obtain a final concentration of 2 nM antibody, 10 mM EDTA and 1× LANCE buffer. The resulting mixture was incubated at room temperature for 60 minutes.
The fluorescence resonance energy transfer (FRET) signal was measured on an Envision plate reader: Excitation filter=340 nm, APC emission=665 nm, Europium emission=615 nm, dichroic mirror=D400/D630, delay time=100 μs, and integration time=200 μs. The half maximal inhibitory concentration (IC50) values for compounds were calculated from the quotient of the fluorescence signal at 665 nm divided by the fluorescence signal at 615 nm. The quotient of the fluorescence signals in the presence of DMSO without compound is set as 100 percent enzymatic activity. A 4-parameter logistic model in PRISM (GraphPad) was used to calculate the IC50 for a given compound.
(In general: TR-FRET usually uses a lanthanide donor and a delayed reading to cut background.)
In the case of `CCN1CCN(Cc2ccc(NC(=O)N3CCc4ccc(Oc5ccnc6c5CCN6)cc4C3)cc2C(F)(F)F)CC1` [III-5], the IC50 was less than 500 nM. `CCN1CCC(Oc2ccc(NC(=O)N3CCc4ccc(Oc5ccnc6[nH]ccc56)cc4[C@@H]3C)cc2C(F)F)CC1` [V-16]: the IC50 lay within 500 to 5000 nM. The same measure, in the same setting: the value for `CCN1CCN(Cc2ccc(NC(=O)N3CCc4ccc(Oc5c(F)cnc6[nH]ccc56)cc4C3)cc2C(F)(F)F)CC1` [III-8] was less than 500 nM; that for `Cc1cc2c(Oc3ccc4c(c3)[C@H](C)N(C(=O)Nc3cnc(OCCN(C)C)c(C(F)(F)F)c3)CC4)ccnc2[nH]1` [VI-15] was 500 to 5000 nM. On to `CCC1CN(C(=O)Nc2ccc(CN3CCN(CC)CC3)c(C(F)(F)F)c2)Cc2cc(Oc3ccnc4[nH]ccc34)ccc21` (stereo not drawn) [IV-22], for which the IC50 was less than 500 nM.

`CCN1CCN(Cc2ccc(NC(=O)N3CCc4cc(F)c(Oc5ncnn6cccc56)cc4C3C)cc2C(F)(F)F)CC1` (stereo not drawn) [IV-34]: the IC50 was more than 10000 nM.

Consider `CCN1CCN(Cc2ccc(NC(=O)N3CCc4ncc(Oc5ccnc6[nH]c(C)cc56)cc4C3C)cc2C(F)(F)F)CC1` (single isomer, unassigned) [VIII-2], for which the IC50 is less than 500 nM.

The same assay, now with this note: 1 mM ATP, Table 20.
In the case of `CC[C@@H]1CN(C(=O)Nc2cnc(OC3CCN(C)CC3)c(C(F)(F)F)c2)Cc2cc(Oc3ccnc4[nH]c(CCOC)cc34)cnc21` [XIV-34], the IC50 is less than 500 nM.

Consider `CCN1CCN(Cc2ccc(NC(=O)N3CCc4cnc(Nc5ccnc6[nH]ccc56)nc4C3)cc2C(F)(F)F)CC1` [XVIII-11], for which the IC50 lay within 500 to 5000 nM.

Compound `CC[C@H]1CN(C(=O)Nc2ccc(CN3CCN(CC)CC3)c(C(F)(F)F)c2)Cc2cc(Oc3ccnc4[nH]c(C5(O)CC5)cc34)cnc21` [XIV-79] yielded an IC50 of less than 500 nM. Same read-out and setting: in the case of `CC[C@H]1CN(C(=O)Nc2ccc(CN3CCN(CCO)CC3)c(C(F)(F)F)c2)Cc2cc(Oc3ccnc4[nH]c(CO)cc34)ccc21` [XV-22] it was less than 500 nM. Turning to `CC[C@H]1CN(C(=O)Nc2ccc(CN3CCN(CC(F)(F)F)CC3)c(C(F)(F)F)c2)Cc2cc(Oc3ccnc4[nH]c(C(=O)N(C)C)cc34)cnc21` [XIV-140], the IC50 was more than 10000 nM. Still for that read-out and setting: the value for `Cc1cc2c(Oc3cnc4c(c3)CN(C(=O)Nc3ccc(CN5CCN(C)CC5)c(C(F)(F)F)c3)C[C@H]4C)ccnc2[nH]1` [XIV-91] was less than 500 nM; that for `CN1CCN(Cc2ccc(NC(=O)N3CCc4ccc(Oc5c(F)cnc6[nH]c(C(=O)N(C)C)cc56)cc4C3)cc2C(F)(F)F)CC1` [XVIII-4] was less than 500 nM. As for `C[C@H]1CN(C(=O)Nc2ccc(CN3CCN(C)CC3)c(C(F)(F)F)c2)Cc2cc(Oc3ccnc4[nH]c(C5CC5)cc34)cnc21` [XIV-81], the IC50 was less than 500 nM. The same measure, in the same setting: the value for `C[C@@H]1Cc2ccc(Oc3ccnc4[nH]c(C5(O)CC5)cc34)cc2CN1C(=O)Nc1cnc(CN2CCN(C)CC2)c(C(F)(F)F)c1` [XVI-3] was less than 500 nM; that for `CN1CCN(Cc2ccc(NC(=O)N3CCc4ccc(Oc5c(F)cnc6[nH]c(-c7cnn(C)c7)cc56)cc4C3)cc2C(F)(F)F)CC1` [compound 19, 7-[[5-Fluoro-2-(1-methylpyrazol-4-yl)-1H-pyrrolo[2,3-b]pyridin-4-yl]oxy]-N-[4-[(4-methylpiperazin-1-yl)methyl]-3-(trifluoromethyl)phenyl]-3,4-dihydro-1H-isoquinoline-2-carboxamide] was less than 500 nM. The compound `C[C@H]1CN(C(=O)Nc2ccc(CN3CCN(C)CC3)c(C(F)(F)F)c2)Cc2cc(Oc3ccnc4[nH]c(C5(O)CC5)cc34)cnc21` [XIV-97] came in with an IC50 of less than 500 nM. As to `CC[C@H]1CN(C(=O)Nc2ccc(CN3CCN(C)CC3)c(C(F)(F)F)c2)Cc2cc(Oc3ccnc4[nH]c(C(=O)NCCCO)cc34)cnc21` [XIV-108], the IC50 is less than 500 nM. Regarding `CC[C@H]1CN(C(=O)Nc2ccc(CN3CCN(CCF)CC3)c(C(F)(F)F)c2)Cc2cc(Oc3ccnc4[nH]c(C(=O)N(C)C)cc34)cnc21` [XIV-138], the IC50 was less than 500 nM.

Compound `CCN1CCN(Cc2ccc(NC(=O)N3Cc4cc(Oc5ccnc6[nH]ccc56)ccc4C(C(F)(F)F)C3)cc2C(F)(F)F)CC1` (stereo not drawn) [XVIII-15] registered an IC50 of less than 500 nM.

By IC50 is commonly meant the concentration that inhibits the measured activity by half. A higher IC50 goes with a need for much substance.
